Test results reported in US20250230193A1, “CYCLIC COMPOUND HAVING SELECTIVE KRAS INHIBITORY EFFECT ON HRAS AND NRAS” (CHUGAI SEIYAKU KABUSHIKI KAISHA, priority 2022, published 2025).
*1 amine or outer side, *2 acyl side, *3 side chain or, on linkers, in order; H or OH if unused. Where a SMILES comes first, the peptide text is derived from it. Bridges are numbered along the chain shown (N, C = ends). [ ]: non-standard residue; d: D form. The star is where a group is joined. hPhe(3-Cl-4-CF3) = N[C@@H](CCc1ccc(C(F)(F)F)c(Cl)c1)C(=O)O; X35 = Cc1ccc(C[C@@H](C(=O)[*:2])N(CCC(C)(C)C)[*:1])cc1; NPrPhe(4-CF3) = CCCN[C@@H](Cc1ccc(C(F)(F)F)cc1)C(=O)O; NMeGly(cPent) = CN[C@H](C(=O)O)C1CCCC1; Pro(4S-Me) = C[C@@H]1CN[C@H](C(=O)O)C1; Hyp = O=C(O)[C@@H]1C[C@@H](O)CN1; NMeD = CN[C@@H](CC(=O)O)C(=O)O; NMeL = CN[C@@H](CC(C)C)C(=O)O; Morpholide = C1CN(*)CCO1; NMeA = CN[C@@H](C)C(=O)O; Ac5c = NC1(C(=O)O)CCCC1; Aze = O=C(O)[C@@H]1CCN1; Sar = CNCC(=O)O

Key:
[1] = target: GDP-bound HRAS wild-type protein (Homo sapiens, UniProt P01112); test: Binding to HRAS by surface plasmon resonance (SPR), Single Cycle Kinetics; details: for HRAS/KRAS (ratio of KD value for HRAS to KD value for KRAS) / HRAS/KRAS (ratio of KD value with respect to HRAS to KD value with respect to KRAS): GDP-bound HRAS wild-type vs GDP-bound KRAS wild-type
Chain of GDP-bound HRAS wild-type protein (P01112 whole entry): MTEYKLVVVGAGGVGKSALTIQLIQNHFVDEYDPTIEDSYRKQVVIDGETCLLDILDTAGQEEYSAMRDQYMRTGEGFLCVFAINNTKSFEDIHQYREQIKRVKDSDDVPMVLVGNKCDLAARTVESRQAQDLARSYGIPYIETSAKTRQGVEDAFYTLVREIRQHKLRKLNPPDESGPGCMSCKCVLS

[2] = target: GDP-bound NRAS wild-type protein (Homo sapiens, UniProt P01111); test: Binding to NRAS by surface plasmon resonance (SPR), Single Cycle Kinetics; details: for NRAS/KRAS (ratio of KD value for NRAS to KD value for KRAS) / NRAS/KRAS (ratio of KD value with respect to NRAS to KD value with respect to KRAS): GDP-bound NRAS wild-type vs GDP-bound KRAS wild-type
Chain of GDP-bound NRAS wild-type protein (P01111 whole entry): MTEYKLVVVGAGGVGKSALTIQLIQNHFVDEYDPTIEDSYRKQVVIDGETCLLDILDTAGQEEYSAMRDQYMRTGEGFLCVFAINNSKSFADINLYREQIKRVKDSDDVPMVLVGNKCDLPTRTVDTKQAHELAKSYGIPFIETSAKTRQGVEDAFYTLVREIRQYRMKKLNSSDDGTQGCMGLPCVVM

[3] = SPR, GDP-bound wild-type proteins

CCCN1C(=O)CN(C)C(=O)CN(C)C(=O)[C@H]([C@@H](C)CC)NC(=O)[C@H](CC(C)C)N(C)C(=O)C[C@@H](C(=O)N2CCOCC2)N(C)C(=O)[C@H](C2CCCC2)N(C)C(=O)C2(CCCC2)NC(=O)[C@@H]2C[C@H](C)CN2C(=O)[C@H](CCc2ccc(C(F)(F)F)c(Cl)c2)NC(=O)CN(C)C(=O)[C@@H]1Cc1ccc(C(F)(F)F)cc1 [PP0447] ([NMeL]I[Sar][Sar][NPrPhe(4-CF3)][Sar][hPhe(3-Cl-4-CF3)][Pro(4S-Me)][Ac5c][NMeGly(cPent)][NMeD]-Morpholide; lactam N-11)
HRAS/KRAS (ratio of KD value with respect to GDP-bound HRAS wild-type protein to KD value with respect to KRAS) ([1]; SPR): C (A compound having a KD ratio of 0.1 or more and less than 3 is denoted as C) | NRAS/KRAS (ratio of KD value with respect to GDP-bound NRAS wild-type protein to KD value with respect to KRAS) ([2]; SPR): B (a compound having 3 or more and less than 10 is denoted as B)

CCC[C@H]1C(=O)N[C@@H]([C@@H](C)CC)C(=O)N[C@@H](C)C(=O)N(C)[C@H]2C/C=C\CCN(C2=O)[C@@H](Cc2ccc(C(F)(F)F)cc2)C(=O)N(C)CC(=O)N[C@@H](CCc2cc(F)c(C(F)(F)F)c(F)c2)C(=O)N2C[C@H](OCC)C[C@H]2C(=O)NC2(CC(C)(C)C2)C(=O)N(C)[C@@H](C2CCCC2)C(=O)N(C)[C@H](C(=O)N(C)C)CC(=O)N1C [PP1927]
HRAS/KRAS (ratio of KD value for HRAS to KD value for KRAS) ([1]; KD ratio, SPR): A (a compound having 10 or more and less than 20 is denoted as A) | NRAS/KRAS (ratio of KD value for NRAS to KD value for KRAS) ([2]; KD ratio, SPR): A (a compound having 10 or more and less than 20 is denoted as A)

CCC[C@H]1C(=O)N[C@@H]([C@@H](C)CC)C(=O)N(C)CC(=O)N(C)[C@H]2C/C=C\CCN(C2=O)[C@@H](Cc2ccc(C(F)(F)F)cc2)C(=O)N(C)CC(=O)N[C@@H](CCc2ccc(C(F)(F)F)c(OC)c2)C(=O)N2C[C@H](OCC)C[C@H]2C(=O)NC2(CC(C)(C)C2)C(=O)N(C)[C@@H](C(CC)CC)C(=O)N(C)[C@H](C(=O)N(C)C)CC(=O)N1C [PP2160]
HRAS/KRAS (ratio of KD value with respect to HRAS to KD value with respect to KRAS) ([1]; SPR): A (a compound having 10 or more and less than 20 is denoted as A) | NRAS/KRAS (ratio of KD value with respect to NRAS to KD value with respect to KRAS) ([2]; SPR): A (a compound having 10 or more and less than 20 is denoted as A)

CCO[C@@H]1C[C@H]2C(=O)NC3(CC(C)(C)C3)C(=O)N(C)[C@@H](C(CC)CC)C(=O)N(C)[C@H](C(=O)N3CCCC3)CC(=O)N(C)[C@@H](COC)C(=O)N[C@@H]([C@@H](C)CC)C(=O)N(C)CC(=O)N(C)[C@H]3C/C=C\CCN(C3=O)[C@@H](Cc3ccc(C)cc3)C(=O)N(C)CC(=O)N[C@@H](CCc3ccc(C(F)(F)F)c(OC)c3)C(=O)N2C1 [PP2167]
HRAS/KRAS (ratio of KD value with respect to HRAS to KD value with respect to KRAS) ([1]; SPR): A (a compound having 10 or more and less than 20 is denoted as A) | NRAS/KRAS (ratio of KD value with respect to NRAS to KD value with respect to KRAS) ([2]; SPR): AA (a compound having 20 or more is denoted as AA)

CCC[C@H]1C(=O)N[C@@H]([C@@H](C)CC)C(=O)N(C)CC(=O)N(C)[C@H]2C/C=C\CCN(C2=O)[C@@H](Cc2ccc(C)cc2)C(=O)N(C)CC(=O)N[C@@H](CCc2cc(F)c(C(F)(F)F)c(F)c2)C(=O)N2C[C@H](OCC)C[C@H]2C(=O)NC2(CC(C)(C)C2)C(=O)N(C)[C@@H](CC(C)C)C(=O)N(C)[C@H](C(=O)N(C)C)CC(=O)N1C [PP2995]
HRAS/KRAS (ratio of KD value with respect to GDP-bound HRAS wild-type protein to KD value with respect to KRAS) [1, 3]: A (a compound having 10 or more and less than 20 is denoted as A) | NRAS/KRAS (ratio of KD value with respect to GDP-bound NRAS wild-type protein to KD value with respect to KRAS) [2, 3]: A (a compound having 10 or more and less than 20 is denoted as A)

CCC[C@H]1C(=O)N[C@@H](CC(C)C)C(=O)N(CC)CC(=O)N(C)[C@H]2C/C=C\CCN(C2=O)[C@@H](Cc2ccc(C)cc2)C(=O)N(C)CC(=O)N[C@@H](CCc2ccc(C(F)(F)F)c(Cl)c2)C(=O)N2C[C@H](OCC)C[C@H]2C(=O)NC2(CC(C)(C)C2)C(=O)N(C)[C@@H](C2CCCC2)C(=O)N(C)[C@H](C(=O)N(C)C)CC(=O)N1C [PP2528]
HRAS/KRAS (ratio of KD value with respect to GDP-bound HRAS wild-type protein to KD value with respect to KRAS) ([1]; class symbols): B (a compound having 3 or more and less than 10 is denoted as B) | NRAS/KRAS (ratio of KD value with respect to GDP-bound NRAS wild-type protein to KD value with respect to KRAS) ([2]; class symbols): A (a compound having 10 or more and less than 20 is denoted as A)

CCO[C@@H]1C[C@H]2C(=O)NC3(CCC3)C(=O)N(C)[C@@H](C3CCCC3)C(=O)N(C)[C@H](C(=O)N(C)C)CC(=O)N(CC)[C@@H](CC(C)C)C(=O)N[C@@H]([C@@H](C)CC)C(=O)N(C)CC(=O)N(C)[C@H]3CC(C)=CCN(C3=O)[C@@H](Cc3ccc(C(F)(F)F)cc3)C(=O)N(C)CC(=O)N[C@@H](CCc3cc(F)c(C(F)(F)F)c(F)c3)C(=O)N2C1 [PP1037]
HRAS/KRAS (ratio of KD value with respect to HRAS to KD value with respect to KRAS) ([1]; KD ratio, SPR): C (A compound having a KD ratio of 0.1 or more and less than 3 is denoted as C) | NRAS/KRAS (ratio of KD value with respect to NRAS to KD value with respect to KRAS) ([2]; KD ratio, SPR): C (A compound having a KD ratio of 0.1 or more and less than 3 is denoted as C)

CC[C@H](C)[C@@H]1NC(=O)[C@H](CC(C)C)N(C)C(=O)C[C@@H](C(=O)N(C)C)N(C)C(=O)[C@H](C2CCCC2)N(C)C(=O)C2(CC(C)(C)C2)NC(=O)[C@@H]2CC(F)(F)CN2C(=O)[C@H](CCc2cc(F)c(C(F)(F)F)c(F)c2)NC(=O)CN(C)C(=O)[C@H](Cc2ccc(C(F)(F)F)cc2)N2CC/C=C\C[C@@H](C2=O)N(C)C(=O)CN(C)C1=O [PP1715]
HRAS/KRAS (ratio of KD value for HRAS to KD value for KRAS) ([1]; KD ratio, SPR): A (a compound having 10 or more and less than 20 is denoted as A) | NRAS/KRAS (ratio of KD value for NRAS to KD value for KRAS) ([2]; KD ratio, SPR): AA (a compound having 20 or more is denoted as AA)

CCCN1C(=O)CN(C)C(=O)CN(C)C(=O)[C@H]([C@@H](C)CC)NC(=O)[C@H](CC(C)C)N(C)C(=O)C[C@@H](C(=O)N(C)C)NC(=O)[C@H](C2CCCC2)N(C)C(=O)C2(CCCC2)NC(=O)[C@@H]2C[C@@H](OCC)CN2C(=O)[C@H](CCc2ccc(C(F)(F)F)c(Cl)c2)NC(=O)CN(C)C(=O)[C@@H]1Cc1ccc(C(F)(F)F)cc1 [PP0359] ([NMeL]I[Sar][Sar][NPrPhe(4-CF3)][Sar][hPhe(3-Cl-4-CF3)][Hyp](Et)[Ac5c][NMeGly(cPent)]D-NMe2; lactam N-11)
HRAS/KRAS (ratio of KD for GDP-bound HRAS wild-type to KD for KRAS) ([1]; SPR): B (a compound having 3 or more and less than 10 is denoted as B) | NRAS/KRAS (ratio of KD for GDP-bound NRAS wild-type to KD for KRAS) ([2]; SPR): B (a compound having 3 or more and less than 10 is denoted as B)

CCC[C@H]1C(=O)N[C@@H]([C@@H](C)CC)C(=O)N(C)CC(=O)N(C)[C@H]2C/C=C\CCN(C2=O)[C@@H](Cc2ccc(C(F)(F)F)cc2)C(=O)N(C)CC(=O)N[C@@H](CCc2ccc(Cl)c(Cl)c2)C(=O)N2CCOC[C@H]2C(=O)NC2(CC(C)(C)C2)C(=O)N(C)[C@@H](C(CC)CC)C(=O)N(C)[C@H](C(=O)N(C)C)CC(=O)N1C [PP2920]
HRAS/KRAS (ratio of KD value with respect to GDP-bound HRAS wild-type protein to KD value with respect to KRAS) ([1]; class symbols): A (a compound having 10 or more and less than 20 is denoted as A) | NRAS/KRAS (ratio of KD value with respect to GDP-bound NRAS wild-type protein to KD value with respect to KRAS) ([2]; class symbols): AA (a compound having 20 or more is denoted as AA)

CC[C@H](C)[C@@H]1NC(=O)[C@H](CC(C)C)N(C)C(=O)C[C@@H](C(=O)N2CCOCC2)N(C)C(=O)[C@H](C2CCCC2)N(C)C(=O)C2(CCCC2)NC(=O)[C@@H]2CCCN2C(=O)[C@H](CCc2ccc(C(F)(F)F)c(Cl)c2)NC(=O)CN(C)C(=O)[C@H](Cc2ccc(C)cc2)N(CCC(C)(C)C)C(=O)[C@@H]2CCN2C(=O)[C@H](C)N(C)C1=O [PP0087] ([NMeL]I[NMeA][Aze][X35][Sar][hPhe(3-Cl-4-CF3)]P[Ac5c][NMeGly(cPent)][NMeD]-Morpholide; lactam N-11)
HRAS/KRAS (ratio of KD for GDP-bound HRAS wild-type to KD for KRAS) ([1]; SPR): C (A compound having a KD ratio of 0.1 or more and less than 3 is denoted as C) | NRAS/KRAS (ratio of KD for GDP-bound NRAS wild-type to KD for KRAS) ([2]; SPR): C (A compound having a KD ratio of 0.1 or more and less than 3 is denoted as C)
